Consider 2 compounds from US20040038855A1 (priority 1999, published 2004).

In test [1] the target is T1, human GALR3 receptor (Homo sapiens, UniProt O60755).
T1 construct: expressed in transfected cells
T1 sequence (O60755 1-368): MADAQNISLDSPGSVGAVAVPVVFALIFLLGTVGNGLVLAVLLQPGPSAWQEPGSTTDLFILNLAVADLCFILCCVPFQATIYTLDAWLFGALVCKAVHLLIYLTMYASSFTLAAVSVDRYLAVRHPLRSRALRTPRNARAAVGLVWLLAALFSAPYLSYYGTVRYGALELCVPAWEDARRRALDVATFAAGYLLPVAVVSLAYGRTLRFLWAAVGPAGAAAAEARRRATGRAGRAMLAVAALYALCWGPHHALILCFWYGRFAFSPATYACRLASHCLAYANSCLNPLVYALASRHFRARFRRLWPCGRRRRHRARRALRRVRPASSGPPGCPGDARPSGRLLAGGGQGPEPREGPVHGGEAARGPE
The experiment in a line: Binding affinity at the human GALR3 receptor.

Test [2] concerns the target human MCH1 receptor (Homo sapiens, UniProt Q99705). The experiment in a line: Competition binding, membrane preparations of A293 cells expressing the human MCH1 receptor, [3H] Compound 10 as radioligand. More on the design: expressed in transfected cells.
Test [3] concerns the target T2, human NPY5 receptor (Homo sapiens, UniProt Q15761).
T2 construct: expressed in transfected cells
T2 sequence (Q15761 1-445): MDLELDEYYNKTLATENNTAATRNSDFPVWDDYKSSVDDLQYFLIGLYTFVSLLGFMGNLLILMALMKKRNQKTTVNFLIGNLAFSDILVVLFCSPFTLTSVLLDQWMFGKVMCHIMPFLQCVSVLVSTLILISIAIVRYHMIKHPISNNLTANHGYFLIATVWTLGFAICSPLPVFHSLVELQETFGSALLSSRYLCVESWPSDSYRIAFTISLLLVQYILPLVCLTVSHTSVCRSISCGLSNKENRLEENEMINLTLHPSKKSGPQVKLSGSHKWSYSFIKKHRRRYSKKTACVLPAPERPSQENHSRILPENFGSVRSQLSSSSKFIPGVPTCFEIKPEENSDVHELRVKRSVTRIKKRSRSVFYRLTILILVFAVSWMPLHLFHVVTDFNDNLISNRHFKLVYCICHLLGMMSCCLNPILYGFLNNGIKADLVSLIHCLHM
The experiment in a line: Binding affinity at the human NPY5 receptor. The source says: (§1) The design of such compounds can be optimized by determining their binding affinity at the recombinant MCH1, NPY1, NPY2, Gal1, Gal2, Gal3, and 5HT2C receptors. The methods to obtain the cDNA of the receptor, express said receptors in heterologous systems, and carry out assays to determine binding affinity are described in the following publications: human NPY1 (Larhammar et al., 1992), human NPY5 (U.S. Pat. No. 5,602,024, the disclosure of which is hereby incorporated by reference in its entirety into this application), human Gall (Habert-Ortoli et al., 1994), human Gal2 (Smith et al., 1997), human Gal3 (Smith et al., 1998), and rat 5HT2C (Julius et al., 1988). Additionally, the compounds would optimally not bind at the following receptors due to possible side effects: human H1 histamine and human H2 histamine receptors; human alpha-1A adrenergic, human alpha-1D adrenergic, human alpha-2A adrenergic, human alpha-2B adrenergic, and human alpha-2C adrenergic receptors; human dopamine D1, D2, D3, D4, and D5 receptors; the β-adrenoceptor; and the human 5HT1A, human 5HT1B, human 5HT1D, human 5HT1E, human 5HT1F, human 5HT2A, rat 5HT2C, human 5HT4, human 5HT6, and human 5HT7 receptors.

The target of test [4] is T3, human NPY1 receptor (Homo sapiens, UniProt P25929).
T3 construct: expressed in transfected cells
T3 sequence (P25929 1-384): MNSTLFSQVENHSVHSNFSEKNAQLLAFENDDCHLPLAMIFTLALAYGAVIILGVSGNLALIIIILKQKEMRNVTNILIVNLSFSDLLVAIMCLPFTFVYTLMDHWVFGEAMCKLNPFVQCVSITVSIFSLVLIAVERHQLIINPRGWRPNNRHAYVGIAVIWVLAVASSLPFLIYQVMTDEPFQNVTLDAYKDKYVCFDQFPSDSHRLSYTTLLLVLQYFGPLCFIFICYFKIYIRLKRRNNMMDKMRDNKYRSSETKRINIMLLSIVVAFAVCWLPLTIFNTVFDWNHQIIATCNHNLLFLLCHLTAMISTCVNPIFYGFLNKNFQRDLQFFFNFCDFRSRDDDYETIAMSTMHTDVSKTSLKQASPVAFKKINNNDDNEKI
The experiment in a line: Binding affinity at the human NPY1 receptor.
From the text: as §1

Test [5] has as its target T4, human GALR1 receptor (Homo sapiens, UniProt P47211).
T4 construct: expressed in transfected cells
T4 sequence (P47211 1-349): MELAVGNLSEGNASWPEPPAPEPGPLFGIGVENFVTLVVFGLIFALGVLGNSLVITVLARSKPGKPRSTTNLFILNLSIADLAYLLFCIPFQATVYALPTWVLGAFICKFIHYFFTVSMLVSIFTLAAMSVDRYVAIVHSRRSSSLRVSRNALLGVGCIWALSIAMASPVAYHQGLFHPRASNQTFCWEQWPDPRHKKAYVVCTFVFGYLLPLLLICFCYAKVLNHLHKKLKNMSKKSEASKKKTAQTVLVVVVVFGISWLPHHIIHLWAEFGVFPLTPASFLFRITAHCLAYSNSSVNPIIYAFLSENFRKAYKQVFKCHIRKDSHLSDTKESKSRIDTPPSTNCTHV
Kind of test: Binding affinity at the human GALR1 receptor.

Read-outs that look alike come from different tables or passages of the source.

Broadly, the Ki is a measure of affinity in units of concentration, obtained from inhibition or displacement.

human MCH1 receptor, sequence (Q99705 whole entry): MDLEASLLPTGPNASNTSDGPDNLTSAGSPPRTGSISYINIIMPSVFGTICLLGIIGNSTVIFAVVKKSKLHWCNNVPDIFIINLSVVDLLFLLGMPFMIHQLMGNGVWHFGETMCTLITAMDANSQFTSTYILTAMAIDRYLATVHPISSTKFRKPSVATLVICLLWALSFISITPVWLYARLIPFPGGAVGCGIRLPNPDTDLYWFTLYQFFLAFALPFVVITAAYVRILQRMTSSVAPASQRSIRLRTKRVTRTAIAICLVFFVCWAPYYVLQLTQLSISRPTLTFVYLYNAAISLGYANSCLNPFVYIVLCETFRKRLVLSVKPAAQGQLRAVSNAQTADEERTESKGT

As for `COC(=O)C1=C(C)NC(=O)N(C(=O)NCCCN2CCC3(CC2)OCc2ccccc23)C1c1ccc(F)c(F)c1` (centres unmarked) [Example 20, 4-(3,4-DIFLUORPHENYL)-6-METHYL-2-OXO-3-{[3-(4-SPIRO[ISOBENZOFURAN-1(3H),4′-PIPERIDINE]PROPYL}-1,2,3,4-TETRAHYDROPYRIMIDINE-5-CARBOXYLIC ACID METHYL ESTER], the Ki in test [1] is greater than 50 µM; in test [1] (read-out: hGALR3 Ki, Table 3b), greater than 50 µM; in test [2], 0.006 µM; in test [2] (read-out: hMCH1 Ki, Table 3e), 0.006 µM; in test [2] (read-out: hMCH1 Ki, Table 3d), 0.006 µM; in test [3], greater than 50 µM. For the same compound, the Ki in test [3] (read-out: hNPY5 Ki, Table 3b) was greater than 50 µM; in test [4], 27.1 µM; in test [4] (read-out: hMPY1 Ki, Table 3a) it was 27.1 µM; in test [5] it was greater than 50 µM; in test [5] (read-out: hGALR1 Ki, Table 3b), greater than 50 µM.
Regarding `O=C(CCCN1CCC(O)(c2ccc(Cl)cc2)CC1)c1ccc(Cl)cc1` [Example 29], the Ki in test [1] is greater than 50 µM; in test [1] (read-out: hGALR3 Ki, Table 3b), greater than 50 µM; in test [2] it was 0.35 µM; in test [3], 46.1 µM; in test [3] (read-out: hNPY5 Ki, Table 3b), 46.1 µM; in test [4], greater than 50 µM. Further, the Ki in test [4] (read-out: hNPY1 Ki, Table 3b) is greater than 50 µM; in test [5] it was greater than 50 µM; in test [5] (read-out: hGALR1 Ki, Table 3b), greater than 50 µM.
